According to ChEMBL document CHEMBL1201862, “PubChem BioAssay data set” (2004):
Activity calls are given as the source filed them.

Key:
[1] = potency of ADAM10 substrate cleavage blockers – biochemical, QFRET, dose response (AID 743254);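 note: ADAM10 enzyme with the DM2 quenched FRET peptide as substrate; EDANS fluorescence gain as the protease cuts the substrate; inhibitor potency against ADAM10 proteolytic activity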
[2] = target: T1, Disintegrin and metalloproteinase domain-containing protein 17 (Homo sapiens, UniProt P78536); test: exosite inhibitors of ADAM17, dose response, biochemical (AID 743260)
[3] = target: T1, Disintegrin and metalloproteinase domain-containing protein 17; test: inhibition of ADAM17 substrate cleavage – biochemical, quenched FRET substrate, counter-screen for ADAM10 exosite inhibitor project, dose response (AID 743253)
cells [4] = assay type: functional, cell-based
cells [5] = assay type: functional, cell-based; remark: listed apart in the source
[6] = target: ADP-ribosylation factor GTPase-activating protein 1 (Rattus norvegicus, UniProt Q62848); test: Fluorescence polarization-based biochemical high throughput dose response screening assay to identify inhibitors of ADP-ribosylation factor GTPase activating protein 1 (ARFGAP1).; assay type: functional
[7] = target: Arf-GAP with SH3 domain, ANK repeat and PH domain-containing protein 1 (Homo sapiens, UniProt Q9ULH1); assay type: functional;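 note: biochemical fluorescence polarization dose–response screen measuring inhibition of ASAP1; ASAP1 GAP domain stimulating GTP hydrolysis by truncated human ARF1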
Major prion protein = Major prion protein (Homo sapiens, UniProt P04156); assay type: functional, cell-based
cells [8] = test: cells
[9] = target: Fructose-bisphosphate aldolase (Mycobacterium tuberculosis, UniProt P9WQA3); test: Fluorescence-based biochemical high throughput dose response assay for inhibitors of the fructose-bisphosphate aldolase (FBA) of M. tuberculosis.; assay type: functional
[10] = target: FAD-linked sulfhydryl oxidase ALR (Homo sapiens, UniProt P55789); test: ALR-catalysed DTT oxidation blockers – biochemical, H2O2 detection, luminescence, cherry-pick, dose response (AID 493248)
[11] = target: SWI/SNF-related matrix-associated actin-dependent regulator of chromatin subfamily A member 2 (Homo sapiens, UniProt P51531); test: Luminescence-based cell-based high throughput dose response assay to identify activators of the function of SWI/SNF related, matrix associated, actin dependent regulator of chromatin, subfamily a, member 2 (SMARCA2, BRM).; assay type: functional
[12] = Counterscreen for activators of the function of SWI/SNF related, matrix associated, actin dependent regulator of chromatin, subfamily a, member 2 (SMARCA2, BRM): Luminescence-based cell-based high throughput dose response assay to identify non-selective compounds using the VP16 reporter assay.; assay type: functional
cells [13] = assay type: functional, cell-based; remark: listed apart in the source
[14] = target: T2, Trace amine-associated receptor 1 (Homo sapiens, UniProt Q96RJ0); test: Fluorescence-based cell-based high throughput dose response assay to identify agonists of the human trace amine associated receptor 1 (TAAR1).; assay type: functional
T2 sequence (Q96RJ0 whole entry): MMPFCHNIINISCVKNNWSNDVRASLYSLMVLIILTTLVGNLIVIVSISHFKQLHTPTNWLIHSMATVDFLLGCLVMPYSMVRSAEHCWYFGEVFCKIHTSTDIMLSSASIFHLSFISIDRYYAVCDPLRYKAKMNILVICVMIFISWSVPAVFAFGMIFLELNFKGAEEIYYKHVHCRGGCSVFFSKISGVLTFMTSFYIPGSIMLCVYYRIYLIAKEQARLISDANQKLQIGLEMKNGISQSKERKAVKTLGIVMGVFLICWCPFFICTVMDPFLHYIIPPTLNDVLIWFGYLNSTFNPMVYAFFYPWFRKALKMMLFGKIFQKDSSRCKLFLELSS

[15] = target: T2, Trace amine-associated receptor 1; test: Counterscreen for agonists of the human trace amine associated receptor 1 (hTAAR1): Fluorescence-based cell-based high throughput dose response assay to identify hTAAR1 agonist that also desensitize TAAR1 receptor response.; assay type: functional
cells [16] = assay type: functional, cell-based; remark: listed apart in the source
[17] = target: T3, Oxysterols receptor LXR-beta (Homo sapiens, UniProt P55055); assay type: functional, cell-based;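 note: Cell-based luminescence dose-response assay of agonist activity at LXR, run as a confirmatory counterscreen to a daf-12 agonist screen; HEK293 cells with Gal4-LXR fusion and GAL4-driven luciferase reporter; agonist potency from rising luciferase signal of a Gal4-LXR reporter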
T3 sequence (P55055 whole entry): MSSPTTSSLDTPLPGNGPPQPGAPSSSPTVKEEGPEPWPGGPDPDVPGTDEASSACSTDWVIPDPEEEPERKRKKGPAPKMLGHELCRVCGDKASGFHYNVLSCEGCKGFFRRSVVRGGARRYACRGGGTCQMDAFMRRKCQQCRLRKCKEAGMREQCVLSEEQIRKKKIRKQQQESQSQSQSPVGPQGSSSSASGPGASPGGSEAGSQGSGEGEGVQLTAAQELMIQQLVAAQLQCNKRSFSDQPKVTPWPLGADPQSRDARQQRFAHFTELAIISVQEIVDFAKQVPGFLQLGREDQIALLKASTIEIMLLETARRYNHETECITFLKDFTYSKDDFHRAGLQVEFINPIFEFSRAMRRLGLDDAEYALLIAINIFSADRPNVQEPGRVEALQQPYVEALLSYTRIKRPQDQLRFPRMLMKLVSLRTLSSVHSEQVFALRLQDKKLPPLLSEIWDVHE

cells [18] = test: cells; remark: listed apart in the source
[19] = NIH-3T3 fibroblast cytotoxicity, dose response, cytotoxicity control, cell-based, fluorescence, Alamar Blue, secondary assay (AID 2327); assay type: functional;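 note: NIH-3T3 mouse fibroblasts cultured with fluconazole at 8 µg/mL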
[20] = fluconazole-exposed Candida albicans growth modulators – fluorescence, retest, confirmation (AID 2467); assay type: functional, cell-based
[21] = reduction of Shn3 3'UTR-driven luciferase in osteoblasts – cell-based, Clone20 osteoblasts, firefly luciferase, cherry-picked, dose response (AID 624132); assay type: functional;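 note: firefly luciferase luminescence from reporter carrying the Shn3 3'UTR in osteoblasts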
[22] = loss of viability in HepG2 cells – cell-based, CellTiter-Glo, cherry-picked, cytotoxicity control for Shn3 inhibitor project, dose response (AID 624134); assay type: functional
[23] = non-specific 3'UTR reporter inhibition in Clone20-Shn3RL – cell-based, Renilla luciferase, cherry-picked, counter-screen for Shn3 inhibitor project, dose response (AID 624133); assay type: functional
[24] = Fluorescence-based cell-based high throughput dose response assay for inhibitors of the interaction of nucleotide-binding oligomerization domain containing 2 (NOD2) and the receptor-interacting serine-threonine kinase 2 (RIPK2).; assay type: functional; conditions: Homo sapiens
Beta Lactamase = Beta Lactamase (Pseudomonas aeruginosa, UniProt Q932Y6); test: BLA reporter interference, concentration series – BLA reporter cells, FRET fluorescence, artefact control for NOD2-RIPK2 interaction inhibitor project, dose response (AID 651552); assay type: functional, cell-based
Paired box protein Pax-8 = Paired box protein Pax-8 (Homo sapiens, UniProt Q06710); test: PAX8 transcriptional activity inhibition in RMG-I – RMG-I cells, luciferase, cherry-pick, dose response (AID 687027); assay type: functional, cell-based;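 note: luciferase reporter driven by Pax8 target thyroperoxidase promoter measured by SteadyGlo luminescence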
[25] = general cell-killing toxicity readout – plate reader, dry powder samples, cytotoxicity control for PAX8 inhibitor project, dose response (AID 743021); assay type: functional, cell-based
[26] = intracellular Trypanosoma cruzi inhibitors in host cells – cell-based, plate reader, cherry-pick samples, set 3, dose response (AID 651818); assay type: functional;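 note: compounds incubated with infected cells for about four days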
[27] = activation of miR-122 Renilla sensor silencing – cell-based, Huh7 psiCHECK-miR122, Renilla luciferase, cherry-picked, dose response (AID 651956); assay type: functional;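 note: huh7 hepatoma cells stably carrying a psiCHECK-2 miR-122 sensor plasmid; renilla luciferase signal reporting endogenous miR-122 activity after 48 h compound exposure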
[28] = toxicity toward immortalized ovarian surface epithelium – cell-based, plate reader, dry powder samples, cytotoxicity control for PAX8 inhibitor project, dose response (AID 743045); assay type: functional
[29] = A2780 cell killing – plate reader, dry powder samples, cytotoxicity control, dose response (AID 743046); assay type: functional, cell-based
[30] = target: NAD-dependent protein deacylase sirtuin-5, mitochondrial (Homo sapiens, UniProt Q9NXA8); test: blockers of sirtuin-5 peptide desuccinylation – biochemical, fluorescence imaging, cherry-pick, set 6, dose response (AID 720597)
[31] = OVCAR-3 cell viability loss – plate reader, dry powder samples, PAX8 inhibitor project, dose response (AID 743044); assay type: functional, cell-based
[32] = IGROV1 cell killing – plate reader, dry powder samples, PAX8 inhibitor project, dose response (AID 743043); assay type: functional, cell-based; conditions: IGROV-1
[33] = OVCAR8 cell viability loss – plate reader, dry powder samples, PAX8 project, dose response (AID 743197); assay type: functional, cell-based; conditions: OVCAR-8
[34] = cytotoxicity in MITF-independent A375 cells – cell-based, CellTiter-Glo luminescence, dry powder, set 4, counter-screen for MITF inhibitor project, dose response (AID 624364); assay type: functional; conditions: A-375;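 note: A375 melanoma cells are MITF independent so this is a counter screen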
[35] = viability loss in MITF-independent A375 cells – cell-based, CellTiter-Glo luminescence, dry powder, set 2, counter-screen for MITF inhibitor project, dose response (AID 624489); assay type: functional; conditions: A-375;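 note: actives are compounds lowering A375 viability meaning general cytotoxicity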

COc1ccc(N(CC(O)Cn2c3ccccc3c3ccccc32)S(=O)(=O)c2ccccc2)cc1 (stereo unspecified)
IC50 [1]: > 69.5 µM (inactive) | IC50 [2]: > 69.5 µM (inactive) | IC50 [3]: > 69.5 µM (inactive)

Cc1ccc2nc(SCC(=O)N3CCCCC3)nc(=O)n2c1
EC50 (cells [4]): > 350 µM (not active) | EC50 (cells [5]): > 350 µM (not active) | IC50 [6]: 32 µM (inactive) | IC50 [7]: 45.9 µM (inactive)

COC(=O)c1sc(N=C(S)NNC(=O)c2c(Br)c(C)nn2C)c(C(=O)OC)c1C
IC50 (Major prion protein): 1.16 µM (active) | IC50 (cells [8]): > 138 µM (inactive)

CCOC(=O)c1cnc2ccc(C)cn2c1=O
IC50 [9]: 1.23 µM (active)

Cc1ccc(O)c(CNc2nc3ccccc3n2C)c1
AC50 [10]: 9.83 µM (active) | EC50 [11]: > 91.2 µM (inactive) | EC50 [12]: > 91.2 µM (inactive)

COc1ccc2c(c1)C(SCC(=O)NCCc1ccccc1)CC(C)(C)O2 (stereo unspecified)
IC50 (cells [13]): > 29.9 µM (inactive) | EC50 [14]: 1.04 µM (active) | IC50 [15]: 2.31 µM (active) | EC50 (cells [16]): > 29.9 µM (inactive)

COc1ccc(-n2nnnc2SCC(=O)c2ccc3c(c2)OCCO3)c(OC)c1
IC50 [6]: 17.7 µM (inactive) | IC50 [7]: 12.6 µM (inactive)

CNc1ncc(C(=O)c2ccc(Cl)cc2)s1
IC50 (Major prion protein): 6.92 µM (active) | IC50 (cells [8]): > 138 µM (inactive)

O=C1C(=C2CCc3ccccc32)Cc2ccccc21
EC50 [17]: > 67.4 µM (inactive) | EC50 (cells [18]): > 67.4 µM (inactive)

O=C(CSC1=NS(=O)(=O)c2ccccc2N1)NCCc1ccccc1
IC50 (cells [13]): > 29.9 µM (inactive) | EC50 [14]: 3.33 µM (active) | IC50 [15]: 6.94 µM (active) | EC50 (cells [16]): > 29.9 µM (inactive)

Cc1cc(OC(C)C(=O)NCCCN2CCOCC2)c2c(C)cc(=O)oc2c1 (stereo unspecified)
IC50 [9]: 1.32 µM (active)

COc1ccc(NC(=O)c2ccc([N+](=O)[O-])o2)cc1
EC50 [19]: 28.2 µM (active) | EC50 [20]: 3.55 µM (active) | EC50 [11]: > 91.1 µM (inactive) | EC50 [12]: > 91.1 µM (inactive)

C=C1C(=O)[C@]23C[C@H]1CCC2[C@@]1(C)C(C[C@@H]3O)[C@](C)(C(=O)OC)CC[C@@H]1OC(C)=O (stereo partly specified)
AC50 [21]: 2.14 µM (active) | AC50 [22]: 7.22 µM (active) | AC50 [23]: 3.51 µM (active) | IC50 [24]: 0.917 µM (active) | IC50 (Beta Lactamase): 18 µM (inactive)

C=C1C(=O)[C@]23C[C@H]1CCC2[C@@]1(C)C(C[C@@H]3O)[C@](C)(C(=O)OC)CC[C@@H]1O (stereo partly specified)
AC50 [21]: 2.58 µM (active) | AC50 [22]: 15.8 µM (active) | AC50 [23]: 7.06 µM (active) | IC50 [24]: 2.3 µM (active) | IC50 (Beta Lactamase): 24.2 µM (inactive) | AC50 (Paired box protein Pax-8): 1.71 µM (active) | AC50 [25]: 38.2 µM (active)

C[C@@H]1CCCCO[C@H](CN(C)S(=O)(=O)c2ccc(F)cc2)[C@@H](C)CN([C@H](C)CO)C(=O)c2cc(NC(=O)Nc3ccc(C(F)(F)F)cc3)ccc2O1
AC50 [26]: 3.61 µM (active) | IC50 [1]: > 69.5 µM (inactive) | IC50 [3]: > 69.5 µM (inactive)

CO[C@H]1CN(C)C(=O)c2ccc(NC(C)=O)cc2OC[C@@H](C)N(C(=O)CC2CC2)C[C@H]1C
AC50 [27]: 49.6 µM (active)

N=C(NC(=S)Nc1ccc2c(c1)OCO2)c1ccccc1
EC50 [17]: > 67.5 µM (inactive) | EC50 (cells [18]): > 67.5 µM (inactive)

O=C(C[C@@H]1C[C@H]2c3cc(NS(=O)(=O)c4ccc(F)cc4)ccc3O[C@H]2[C@H](CO)O1)NCc1ccc(-c2ccccc2)cc1
AC50 (Paired box protein Pax-8): 3.44 µM (active) | AC50 [28]: 17.6 µM (active) | AC50 [29]: 10.6 µM (active) | AC50 [30]: > 30 µM (inactive) | AC50 [31]: 9.15 µM (active) | AC50 [32]: 14.6 µM (active) | AC50 [33]: 14.8 µM (active)

CO[C@@H]1CN(C)C(=O)c2cc(NC(=O)c3ccc(-c4ccccc4)cc3)ccc2OC[C@H](C)NC[C@H]1C
AC50 (Paired box protein Pax-8): 25.3 µM (active) | AC50 [29]: 37.2 µM (active) | AC50 [31]: 42.2 µM (active) | AC50 [25]: 40.4 µM (active)

CCN1CCN(C2=C(N(C)C(C)=O)C(=O)c3ccccc3C2=O)CC1
AC50 [34]: 12.4 µM (active) | AC50 [35]: 6.2 µM (active)

O=C1C(NS(=O)(=O)c2ccc(Br)s2)=C(N2CCSCC2)C(=O)c2ccccc21
AC50 [34]: > 70 µM (inactive) | AC50 [35]: > 70 µM (inactive)

COc1ccc(NC(=O)N(C)C[C@H]2Oc3ccc(NS(=O)(=O)c4ccc(F)cc4)cc3C(=O)N([C@@H](C)CO)C[C@H]2C)cc1
AC50 [30]: > 30 µM (inactive)
